Results: US20260124213A1, “STAPHYLOCOCCUS AUREUS PBP4 INHIBITORS AND METHOD OF USE” (UNIVERSITY OF ROCHESTER, priority 2022, published 2026)
Where “and” joins values, the source holds several entries; their conditions need not be identical. Identical values can stand only once.

Tests used:
Test in all cases: Broth microdilution antibiotic potentiation
Format in all cases: cell-based, Staphylococcus aureus
[1] = system: MRSA strain ATCC BAA-1556; conditions: ATCC BAA-1556
In short: (§1)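 MRSA grown 6 h in CAMHB, subcultured to 5×10^5 CFU/mL, then adjuvant compound added from DMSO stock. Antibiotic serially 2-fold diluted across plate in adjuvant-containing culture, antibiotic-alone as control; plates incubated at 37° C.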

MRSA strain AH-2204 = conditions: AH-2204
In short: as §1

MRSA strain AH-1263 = conditions: AH-1263
In short: as §1

[2] = Ex. 3 compound at 60 μM (18 and 19 at 30 μM)

O=C(Nc1ccc2[nH]c(-c3cccs3)nc2c1)c1ccco1 [Compound 1 (7729837)]
Ampicillin MIC [1, 2]: 8 µg/mL
Ampicillin MIC fold reduction [1, 2]: (2)
Cefotaxime MIC [1, 2]: 16 µg/mL
Cefotaxime MIC fold reduction [1, 2]: (2)
Oxacillin MIC [1, 2]: 2 µg/mL
Amoxicillin MIC ([1]; with Ex. 3 compound): 8 µg/mL
Cephalothin MIC ([1]; with Ex. 3 compound): 1 µg/mL
Cephalothin MIC fold reduction ([1]; with Ex. 3 compound): 16
Penicillin G MIC ([1]; with Ex. 3 compound): 2 µg/mL
Piperacillin MIC ([1]; with Ex. 3 compound): 8 µg/mL
Piperacillin MIC fold reduction ([1]; with Ex. 3 compound): 2
Ampicillin MIC (MRSA strain AH-2204; [2]): 2 µg/mL
Cefotaxime MIC (MRSA strain AH-2204; [2]): 8 µg/mL
Cefotaxime MIC fold reduction (MRSA strain AH-2204; [2]): (2)
Oxacillin MIC (MRSA strain AH-2204; [2]): 0.5 µg/mL and 0.6 µg/mL
Amoxicillin MIC (MRSA strain AH-2204; with Ex. 3 compound): 2 µg/mL
Cephalothin MIC (MRSA strain AH-2204; with Ex. 3 compound): 0.125 µg/mL
Cephalothin MIC fold reduction (MRSA strain AH-2204; with Ex. 3 compound): 32
Penicillin G MIC (MRSA strain AH-2204; with Ex. 3 compound): 1 µg/mL
Piperacillin MIC (MRSA strain AH-2204; with Ex. 3 compound): 4 µg/mL
Ampicillin MIC (MRSA strain AH-1263; [2]): 8 µg/mL
Ampicillin MIC fold reduction (MRSA strain AH-1263; [2]): (2)
Cefotaxime MIC (MRSA strain AH-1263; [2]): 8 µg/mL
Cefotaxime MIC fold reduction (MRSA strain AH-1263; [2]): (4)
Oxacillin MIC (MRSA strain AH-1263; [2]): 1 µg/mL
Amoxicillin MIC (MRSA strain AH-1263; with Ex. 3 compound): 8 µg/mL
Cephalothin MIC (MRSA strain AH-1263; with Ex. 3 compound): 1 µg/mL
Cephalothin MIC fold reduction (MRSA strain AH-1263; with Ex. 3 compound): 32
Penicillin G MIC (MRSA strain AH-1263; with Ex. 3 compound): 4 µg/mL
Penicillin G MIC fold reduction (MRSA strain AH-1263; with Ex. 3 compound): 2
Piperacillin MIC (MRSA strain AH-1263; with Ex. 3 compound): 8 µg/mL
Piperacillin MIC fold reduction (MRSA strain AH-1263; with Ex. 3 compound): 2
